# Assay results: patent US10131652B2, “Pyrimidinyloxy benzene derivatives as herbicides” (E. I. DU PONT DE NEMOURS AND COMPANY, priority 2014, dated 2018)
# Like-named read-outs stand apart in the source and are kept apart here.
# How the values were obtained:
# Type in all cases: in vivo
# [1] = tested on: downy bromegrass (Bromus tectorum); assay: Test E pre-/postemergence plant response; conditions: scale 0 to 100, read-out: Plant response rating, Bromegrass, Downy; for pest or weed control at 16 g/ha: 16 g ai/ha; for pest or weed control at 31 g/ha: 31 g ai/ha; for pest or weed control at 62 g/ha: 62 g ai/ha; for pest or weed control at 125 g/ha: 125 g ai/ha
# How it was run: (§1)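 Visual scores on a 0–100 scale (100 = complete control) were assigned against untreated controls 7–21 days after treatment in a controlled environment. Compounds, formulated with solvent plus surfactant, were applied to pre-emergence silt-loam sowings or to 1- to 4-leaf plants (2–18 cm) in potting medium.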
# [2] = tested on: deadnettle (henbit deadnettle, Lamium amplexicaule); assay: Test E pre-/postemergence plant response; conditions: scale 0 to 100, read-out: Plant response rating, Deadnettle; for pest or weed control at 16 g/ha: 16 g ai/ha; for pest or weed control at 31 g/ha: 31 g ai/ha; for pest or weed control at 62 g/ha: 62 g ai/ha; for pest or weed control at 125 g/ha: 125 g ai/ha
# How it was run: as §1
# Horseweed = assay: Test F postemergence plant response; conditions: scale 0 to 100
# [3] = tested on: hardstem bulrush (Scirpus juncoides); assay: Test G flooded paddy rice/weed plant response; conditions: Flood, 21 days, scale 0 to 100 (0 no effect, 100 complete control)
# Description: (§2) Three plastic pots (ca. 16-cm diameter) per rate were partially filled with sterilized Tama silt loam soil comprising a 35:50:15 ratio of sand, silt and clay and 2.6% organic matter. Separate plantings for each of the three pots were as follows. Seeds from the U.S. of monochoria (Monochoria vaginalis), small-flower umbrella sedge (Cyperus difformis), hardstem bulrush (Scirpus juncoides), and redstem (purple redstem, Ammannia coccinea), were planted into one 16-cm pot for each rate. Seeds from the U.S. of rice flatsedge (Cyperus iria), bearded sprangletop (Leptochloa fascicularis), one stand of 9 or 10 water seeded rice seedlings (Indica rice, Oryza sativa), and two stands of 3 or 4 transplanted rice seedlings (Oryza sativa cv. ‘Japonica—M202’) were planted into one 16-cm pot for each rate. Seeds from the U.S. of bamyardgrass (Echinochloa crus-galli), and late watergrass (Echinochloa oryzicola) were planted into one 16-cm pot for each rate. Plantings were sequential so that crop and weed species were at the 2.0 to 2.5-leaf stage at time of treatment.
# (§3) Potted plants were grown in a greenhouse with day/night temperature settings of 30/27° C., and supplemental balanced lighting was provided to maintain a 16-hour photoperiod. Test pots were maintained in the greenhouse until test completion.
# (§4) At time of treatment, test pots were flooded to 3 cm above the soil surface, treated by application of test compounds directly to the paddy water, and then maintained at that water depth for the duration of the test. Effects of treatments on rice and weeds were visually evaluated by comparison to untreated controls after 21 days. Plant response ratings, summarized in Table G, are based on a scale of 0 to 100 where 0 is no effect and 100 is complete control. A dash (-) response means no test result.
# [4] = tested on: bearded sprangletop (Leptochloa fascicularis); assay: Test G flooded paddy rice/weed plant response; conditions: Flood, 21 days, scale 0 to 100 (0 no effect, 100 complete control)
# Description: as §2, §3, §4
# [5] = tested on: small-flower umbrella sedge (Cyperus difformis); assay: Test G flooded paddy rice/weed plant response; conditions: Flood, 21 days, scale 0 to 100 (0 no effect, 100 complete control)
# Description: as §2, §3, §4
# [6] = tested on: redstem (purple redstem, Ammannia coccinea); assay: Test G flooded paddy rice/weed plant response; conditions: Flood, 21 days, scale 0 to 100 (0 no effect, 100 complete control)
# Description: as §2, §3, §4
# [7] = tested on: ducksalad (Heteranthera limosa); assay: Test D flooded paddy test plant response; conditions: Flood (flooded paddy test), visual rating on scale 0 to 100 (0 no effect, 100 complete control), 13 to 15 days
# How it was run: (§5)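 Plants at 2-leaf stage in pots flooded 3 cm above soil; compounds applied directly into paddy water, depth kept throughout. After 13-15 days in greenhouse, visual rating against controls on 0-100 scale (100 = complete control).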
# rice (Oryza sativa) = assay: Test D flooded paddy test plant response; conditions: Flood (flooded paddy test), visual rating on scale 0 to 100 (0 no effect, 100 complete control), 13 to 15 days
# How it was run: as §5
# [8] = tested on: small-flower umbrella sedge (Cyperus difformis); assay: Test D flooded paddy test plant response; conditions: Flood (flooded paddy test), visual rating on scale 0 to 100 (0 no effect, 100 complete control), 13 to 15 days
# How it was run: as §5
# [9] = tested on: barnyardgrass (Echinochloa crus-galli); assay: Test D flooded paddy test plant response; conditions: Flood (flooded paddy test), visual rating on scale 0 to 100 (0 no effect, 100 complete control), 13 to 15 days
# How it was run: as §5
smiles,measurement,setting,value
"Fc1cccc(Oc2ncc(Cl)cn2)c1-c1cc(C(F)F)on1 [Compound 55, 5-chloro-2-[2-[5-(difluoromethyl)-3-isoxazolyl]-3-fluorophenoxy]pyrimidine]",pest or weed control at 16 g/ha,"[1]; post-emergence, Postemergence",5%
same,pest or weed control at 31 g/ha,"[1]; post-emergence, Postemergence",0%
same,pest or weed control at 62 g/ha,"[1]; post-emergence, Postemergence",10%
same,pest or weed control at 125 g/ha,"[1]; post-emergence, Postemergence",10%
same,pest or weed control at 16 g/ha,"[1]; pre-emergence, Preemergence",20%
same,pest or weed control at 31 g/ha,"[1]; pre-emergence, Preemergence",20%
same,pest or weed control at 62 g/ha,"[1]; pre-emergence, Preemergence",55%
same,pest or weed control at 125 g/ha,"[1]; pre-emergence, Preemergence",55%
same,pest or weed control at 16 g/ha,"[2]; post-emergence, Postemergence",20%
same,pest or weed control at 31 g/ha,"[2]; post-emergence, Postemergence",50%
same,pest or weed control at 62 g/ha,"[2]; post-emergence, Postemergence",70%
same,pest or weed control at 125 g/ha,"[2]; post-emergence, Postemergence",80%
same,pest or weed control at 16 g/ha,"[2]; pre-emergence, Preemergence",0%
same,pest or weed control at 31 g/ha,"[2]; pre-emergence, Preemergence",0%
same,pest or weed control at 62 g/ha,"[2]; pre-emergence, Preemergence",0%
same,pest or weed control at 125 g/ha,"[2]; pre-emergence, Preemergence",0%
same,"Plant response rating, Horseweed",Horseweed; 31 g ai/ha Postemergence,15
same,"Plant response rating, Horseweed",Horseweed; 62 g ai/ha Postemergence,20
same,"Plant response rating, Bulrush, Hardstem",[3]; 32 g ai/ha,80
same,"Plant response rating, Bulrush, Hardstem",[3]; 64 g ai/ha,100
same,"Plant response rating, Bulrush, Hardstem",[3]; 125 g ai/ha,100
same,"Plant response rating, Bulrush, Hardstem",[3]; 250 g ai/ha,100
same,"Plant response rating, Sprangletop, Brdd.",[4]; 32 g ai/ha,45
same,"Plant response rating, Sprangletop, Brdd.",[4]; 64 g ai/ha,80
same,"Plant response rating, Sprangletop, Brdd.",[4]; 125 g ai/ha,100
same,"Plant response rating, Sprangletop, Brdd.",[4]; 250 g ai/ha,100
same,"Plant response rating, Sedge, Umbrella",[5]; 32 g ai/ha,98
same,"Plant response rating, Sedge, Umbrella",[5]; 64 g ai/ha,100
same,"Plant response rating, Sedge, Umbrella",[5]; 125 g ai/ha,100
same,"Plant response rating, Sedge, Umbrella",[5]; 250 g ai/ha,100
same,"Plant response rating, Redstem",[6]; 32 g ai/ha,85
same,"Plant response rating, Redstem",[6]; 64 g ai/ha,95
same,"Plant response rating, Redstem",[6]; 125 g ai/ha,100
same,"Plant response rating, Redstem",[6]; 250 g ai/ha,100
same,"Plant response rating, Ducksalad",[7]; 31 g ai/ha,75
same,"Plant response rating, Ducksalad",[7]; 62 g ai/ha,80
same,"Plant response rating, Ducksalad",[7]; 125 g ai/ha,85
same,"Plant response rating, Ducksalad",[7]; 250 g ai/ha,90
same,"Plant response rating, Rice",rice (Oryza sativa); 31 g ai/ha,0
same,"Plant response rating, Rice",rice (Oryza sativa); 62 g ai/ha,0
same,"Plant response rating, Rice",rice (Oryza sativa); 125 g ai/ha,0
same,"Plant response rating, Rice",rice (Oryza sativa); 250 g ai/ha,0
same,"Plant response rating, Sedge, Umbrella",[8]; 31 g ai/ha,75
same,"Plant response rating, Sedge, Umbrella",[8]; 62 g ai/ha,75
same,"Plant response rating, Sedge, Umbrella",[8]; 125 g ai/ha,85
same,"Plant response rating, Sedge, Umbrella",[8]; 250 g ai/ha,100
same,"Plant response rating, Barnyardgrass",[9]; 31 g ai/ha,0
same,"Plant response rating, Barnyardgrass",[9]; 62 g ai/ha,0
same,"Plant response rating, Barnyardgrass",[9]; 125 g ai/ha,10
same,"Plant response rating, Barnyardgrass",[9]; 250 g ai/ha,30
